Literature values, collected in US20150080252A1 (Fox Chase Cancer Center, priority 2009, published 2015).
Counter-ions that a name gives are not always drawn.

System: metastatic and/or unresectable GIST

Cc1ccc(NC(=O)c2ccc(CN3CCN(C)CC3)cc2)cc1Nc1nccc(-c2cccnc2)n1 [IM, imatinib mesylate]
patients with objective responses or stable disease (metastatic and/or unresectable GIST): > 80% | median time to partial response (PR) (≧30% reduction) (seminal phase II metastatic GIST study): 16 weeks
